In patent publication US20220089616A1, “CARBORANE-BASED HISTONE DEACETYLASE (HDAC) INHIBITORS” (The Regents of the University of California, priority 2018, published 2022):

Tested on: primary mouse NPCs
Assay: TUNEL assay, mouse NPCs
Type: cell-based
Details: 40 μM
Experimental: Primary neural progenitor cells (NPCs) were a gift from Dr. Harley Kornblum (University of California Los Angeles). The cells were collected from embryonic day 14 (E14) mouse brain according to procedures approved by the UCLA Chancellor's Committee for Animal Research. The following supplements were added to the Neurobasal media: 1:50 B27, 1:100 Pen-Strep, 2 mM 1-glutamine (all from GIBCO/BRL), 2 μg/ml heparin (Sigma), and 20 ng/ml FGF2 (PeproTech). Cells were incubated at 37° C. in the presence of 5% CO2. Additional FGF2 was added every third day, and cultures were passaged every 7 days. During each passage, spheres were enzymatically and mechanically dissociated with Accumax (Sigma).
Click-iT® Plus TUNEL Assay (Molecular Probes Life Technologies, Catalog #: C10617)
Primary mouse NPCs were passaged and counted as previously described. Cells without treatment were used as a negative control, DNaseI (Cat. no. 18068-015) was used to generate a positive control, and 10 μL of inhibitor solutions were used at varying concentrations. A 24-well plate was prepped with 12 mm circle glass coverslips in the wells. Coverslips were coated with poly-L-lysine followed by laminin prior to plating the cells. […]

**Q.** How did the “toxicity by average cell population count of confocal images” value (5 positions) turn out when `CN(Cc1ccc(/C=C/C(=O)NO)cc1)CC12CC3CC(CC(C3)C1)C2` [Martinostat] was run?
**A.** higher toxicity

**Q.** And the TUNEL positive cells (FIG. 11A)?
**A.** perceived elevation
